The values that follow come from ChEMBL document CHEMBL1125081, “Stereospecific synthesis and antiviral properties of different enantiomerically pure carbocyclic 2'-deoxyribonucleoside analogues derived from common chiral pools: (+)-(1R,5S)- and (-)-(1S,5R)-2-oxabicyclo[3.3.0]oct-6-en-3-one” (1990).

For one assay, the system named is HeLa. As to the kind of experiment: Evaluated for minimum inhibitory concentration against HeLa cells (human carcinoma) infected with VSV, Coxs, B4, polio-1 virus. The assay is classed as functional.
For assay [1], the system named is Human alphaherpesvirus 1. As to the kind of experiment: Evaluated for minimum inhibitory concentration against KOS, F, McIntyre strains of Herpes simplex virus (HSV-1) in primary rabbit kidney cells. Type of assay: functional.
In a further assay the test system is Human alphaherpesvirus 2. As to the kind of experiment: Evaluated for minimum inhibitory concentration against G,196, Lyons strains of Herpes simplex virus (HSV-2) in primary rabbit kidney cells. Type of assay: functional.
The next assay deals with Vaccinia virus. As to the kind of experiment: Evaluated for minimum inhibitory concentration against Vaccinia virus (VV) in primary rabbit kidney cells. The note with it: Orthopoxvirus vaccinia. Type of assay: functional.
The subject of assay [2] is Human alphaherpesvirus 1. As to the kind of experiment: Evaluated for minimum inhibitory concentration against TK-B2006 strain of Herpes simplex virus (HSV-1) in primary rabbit kidney cells. Type of assay: functional.
The subject of assay [3] is Human immunodeficiency virus 1. As to the kind of experiment: Evaluated for minimum inhibitory concentration (MIC) against MT-4 cells of human immunodeficiency virus type-1 (HIV-1). Type of assay: functional, MT4.
Assay [4] relates to Vesicular stomatitis virus. As to the kind of experiment: Evaluated for minimum inhibitory concentration against Vesicular stomatitis virus (VSV) in primary rabbit kidney cells. Type of assay: functional.
The test system of another assay is Vero. As to the kind of experiment: Evaluated for minimum inhibitory concentration against Vero cells (African green monkey) infected with PV-3, RV-1, SV, Coxs B4, SFV virus. The assay is classed as functional. The settings on record: Chlorocebus sabaeus.
Assay [5] concerns Vesicular stomatitis virus. As to the kind of experiment: Evaluated for minimum inhibitory concentration (MIC) against Vesicular stomatitis virus (VSV). Type of assay: functional.

Values after ≈ are worked out from the molar mass of the structure shown.

As for `Cc1cn([C@@H]2C[C@H](CO)[C@H](O)C2)c(=O)[nH]c1=O`, the MIC is greater than 400 µg/mL in the assay on HeLa; greater than 400 µg/mL with Human alphaherpesvirus 1 [1]; greater than 400 µg/mL in the assay on Human alphaherpesvirus 2; greater than 400 µg/mL against Vaccinia virus; greater than 400 µg/mL against Human alphaherpesvirus 1 [2]; greater than 250 µg/mL in [3]. The MIC in assay [4] is greater than 400 µg/mL; in the assay on Vero it was greater than 200 µg/mL.

As to `Cc1cn([C@@H]2C[C@H](CO)[C@@H](O)C2)c(=O)[nH]c1=O`, the MIC is greater than 100 µg/mL with HeLa; 0.2 µg/mL (≈ 0.832 µM) in the assay with Human alphaherpesvirus 1 [1]; 2 µg/mL (≈ 8.32 µM) against Human alphaherpesvirus 2; 2 µg/mL (≈ 8.32 µM) against Vaccinia virus; 40 µg/mL (≈ 166 µM) against Human alphaherpesvirus 1 [2]; greater than 200 µg/mL in assay [4]. The compound further gave an MIC with Vero greater than 100 µg/mL.

For the compound `Nc1ncnc2c1ncn2[C@@H]1C[C@H](CO)[C@@H](O)C1`, the MIC was greater than 100 µg/mL with HeLa; 2 µg/mL (≈ 8.02 µM) in the assay with Human alphaherpesvirus 1 [1]; 20 µg/mL (≈ 80.2 µM) in the assay on Human alphaherpesvirus 2; 100 µg/mL (≈ 401 µM) in the assay with Vaccinia virus; 100 µg/mL (≈ 401 µM) in the assay on Human alphaherpesvirus 1 [2]; greater than 50 µg/mL in assay [3]. For the same compound, the MIC was greater than 400 µg/mL in assay [4] and greater than 100 µg/mL with Vero.

`Cc1cn(C2CC3OCC2C3CO)c(=O)[nH]c1=O` (stereo unspecified): the MIC is greater than 400 µg/mL against HeLa; greater than 400 µg/mL against Human alphaherpesvirus 1 [1]; greater than 400 µg/mL against Human alphaherpesvirus 2; greater than 400 µg/mL with Vaccinia virus; greater than 400 µg/mL in the assay with Human alphaherpesvirus 1 [2]; greater than 250 µg/mL in [3]. Also, the MIC (in assay [4]; in the assay with Vero) was greater than 400 µg/mL in each case.

`Cc1cn([C@H]2CC[C@@H](CO)C2)c(=O)[nH]c1=O`: the MIC in the assay with HeLa was greater than 400 µg/mL; in the assay on Human alphaherpesvirus 1 [1], greater than 400 µg/mL; with Human alphaherpesvirus 2, greater than 400 µg/mL; with Vaccinia virus it was greater than 400 µg/mL; in the assay on Human alphaherpesvirus 1 [2], greater than 400 µg/mL; in assay [3], greater than 250 µg/mL. Besides, the MIC (in [4]; in the assay on Vero) was greater than 400 µg/mL each time.

As for `Cc1cn([C@H]2C[C@@H](CO)[C@H](O)C2)c(=O)[nH]c1=O`, the MIC against HeLa is greater than 100 µg/mL; in the assay on Human alphaherpesvirus 1 [1], greater than 400 µg/mL; in the assay with Human alphaherpesvirus 2, greater than 400 µg/mL; against Vaccinia virus, greater than 400 µg/mL; in assay [3] it was greater than 160 µg/mL; in assay [4], greater than 400 µg/mL. Further, the MIC with Vero is greater than 400 µg/mL.

Take `Cc1cn([C@H]2C[C@H](O)[C@@H](CO)[C@@H]2C)c(=O)[nH]c1=O`: the MIC (in the assay on HeLa; in the assay with Human alphaherpesvirus 1 [1]; in the assay with Human alphaherpesvirus 2; in the assay with Vaccinia virus; in [5]; in the assay on Human alphaherpesvirus 1 [2]) was greater than 400 µg/mL throughout. The results for the MIC (in assay [3]; in the assay on Vero) were greater than 250 µg/mL and greater than 400 µg/mL, respectively.

Turning to `Nc1nccc2c1ncn2[C@@H]1C[C@H](CO)[C@@H](O)[C@H]1O` [3-DEAZAARISTEROMYCIN A], the MIC was 2 µg/mL (≈ 7.57 µM) against HeLa; greater than 400 µg/mL in the assay on Human alphaherpesvirus 1 [1]; greater than 400 µg/mL against Human alphaherpesvirus 2; 0.7 µg/mL (≈ 2.65 µM) in the assay with Vaccinia virus; 150 µg/mL (≈ 568 µM) against Human alphaherpesvirus 1 [2]; 0.7 µg/mL (≈ 2.65 µM) in assay [4]. The compound further registered an MIC in the assay with Vero of 0.7 µg/mL (≈ 2.65 µM).

On to `O=c1[nH]c(=O)n([C@H]2C[C@H](O)[C@@H](CO)O2)cc1/C=C/Br` [BRIVUDINE], for which the MIC was greater than 400 µg/mL in the assay on HeLa; 0.02 µg/mL (≈ 0.06 µM) in the assay on Human alphaherpesvirus 1 [1]; 7 µg/mL (≈ 21 µM) in the assay with Human alphaherpesvirus 2; 20 µg/mL (≈ 60 µM) in the assay with Vaccinia virus; greater than 200 µg/mL in the assay with Human alphaherpesvirus 1 [2]; greater than 400 µg/mL in [4]. In the assay on Vero, the MIC was greater than 400 µg/mL.

Take `NC(=O)c1ncn([C@@H]2O[C@H](CO)[C@@H](O)[C@H]2O)n1` [RIBAVIRIN]: the MIC is 20 µg/mL (≈ 81.9 µM) in the assay on HeLa; greater than 400 µg/mL against Human alphaherpesvirus 1 [1]; greater than 400 µg/mL in the assay with Human alphaherpesvirus 2; 10 µg/mL (≈ 40.9 µM) in the assay on Vaccinia virus; greater than 400 µg/mL in the assay on Human alphaherpesvirus 1 [2]; 300 µg/mL (≈ 1230 µM) in [4]. This compound also had an MIC with Vero of 150 µg/mL (≈ 614 µM).

Consider `Cc1cn([C@H]2C[C@H](N=[N+]=[N-])[C@@H](CO)O2)c(=O)[nH]c1=O` [ZIDOVUDINE], for which the MIC in assay [3] worked out at 0.001 µg/mL (≈ 0.00374 µM).
